What was measured:
NK-YS = assay: drug sensitivity score (viability inhibition); higher = more sensitive; conditions: 72 h; IL2 2.5 ng/ml
Procedure: (§1)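 NK-cell leukemia/lymphoma cell lines (3,000 cells/well) were cultured with IL2 2.5 ng/ml in 384-well drug plates (5-8 concentrations over a 10,000-fold range) for 72 h at 37 C; viability was read with CellTiter-Glo. DSS is a normalised area under the dose-response curve; the experiment was repeated twice.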

KHYG-1 = assay: as above; conditions: 72 h; IL2 2.5 ng/ml
Procedure: as §1

YT = assay: as above; conditions: 72 h; IL2 2.5 ng/ml
Procedure: as §1

KAI3 = assay: as above; conditions: 72 h; IL2 2.5 ng/ml
Procedure: as §1

NKL = assay: as above; conditions: 72 h; IL2 2.5 ng/ml
Procedure: as §1

SNK6 = assay: as above; conditions: 72 h; IL2 2.5 ng/ml
Procedure: as §1

NK-92 = assay: as above; conditions: 72 h; IL2 2.5 ng/ml
Procedure: as §1

HEK293-SIE STAT3 Y640F = assay: drug sensitivity score (inhibition of STAT3 luciferase reporter); higher = stronger inhibition; conditions: 6 h; IL6 0 ng/ml
Procedure: (§2)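 HEK293 cells with a STAT3-inducible (SIE) luciferase reporter, stably expressing WT STAT3 (IL6 100 ng/ml) or Y640F STAT3 (no IL6), were incubated 6 h with drugs in 384-well plates (5-8 concentrations over a 10,000-fold range); luciferase was read with ONE-Glo. DSS is a normalised area under the dose-response curve; values are the mean of two experiments.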

HEK293-SIE STAT3 WT = assay: as above; conditions: 6 h; STAT3: WT; IL6 100 ng/ml
Procedure: as §2

| Structure (SMILES) | drug sensitivity score (NK-YS) | drug sensitivity score (KHYG-1) | drug sensitivity score (YT) | drug sensitivity score (KAI3) | drug sensitivity score (NKL) | drug sensitivity score (SNK6) | drug sensitivity score (NK-92) | drug sensitivity score (HEK293-SIE STAT3 Y640F) | drug sensitivity score (HEK293-SIE STAT3 WT) |
| --- | --- | --- | --- | --- | --- | --- | --- | --- | --- |
| COc1ccccc1S(=O)(=O)Nc1ccc2c(c1)CN(C)C(=O)N2 [PFI-1] | 6.22 DSS | 7.25 DSS | 3.24 DSS | 1.7 DSS | 4.02 DSS | 4.16 DSS | 0.03 DSS | 0 DSS | 6.65 DSS |
| CC(=O)c1c(C)c2cnc(Nc3ccc(N4CCNCC4)cn3)nc2n(C2CCCC2)c1=O [Palbociclib] | 6.84 DSS | 15.5 DSS | 5.11 DSS | 3.02 DSS | 9.52 DSS | 0 DSS | 5.78 DSS | 2.8 DSS | 4.85 DSS |
| Cc1[nH]c2ccccc2c1CCNCc1ccc(/C=C/C(=O)NO)cc1 [Panobinostat] | 23 DSS | 23.1 DSS | 18.8 DSS | 21.9 DSS | 24.2 DSS | 21.9 DSS | 21.8 DSS | 4.7 DSS | 3.75 DSS |
| CS(=O)(=O)N1CCN(Cc2cc3nc(-c4cccc5[nH]ncc45)nc(N4CCOCC4)c3s2)CC1 [Pictilisib] | 6.48 DSS | 3.56 DSS | 5.04 DSS | 2.33 DSS | 6.67 DSS | 1.94 DSS | 7.68 DSS | 5 DSS | 4.5 DSS |
| O=C(NC[C@H](O)CO)c1ccncc1Nc1ccc(I)cc1F [Pimasertib] | 2.47 DSS | 15.8 DSS | 0.0567 DSS | 4.56 DSS | 11 DSS | 0.301 DSS | 0 DSS | 2.03 DSS | 3.4 DSS |
| Cc1ccc(C(=O)Nc2ccc(CN3CCN(C)CC3)c(C(F)(F)F)c2)cc1C#Cc1cnc2cccnn12 [Ponatinib] | 2.28 DSS | 3.2 DSS | 4.26 DSS | 3.2 DSS | 4.93 DSS | 0 DSS | 1.39 DSS | 2.8 DSS | 2.95 DSS |
| C[C@]12C=CC(=O)C=C1CC[C@@H]1[C@@H]2[C@@H](O)C[C@@]2(C)[C@H]1CC[C@]2(O)C(=O)CO [Prednisolone] | 1.37 DSS | 6.65 DSS | 5.05 DSS | 0 DSS | 11 DSS | 2.12 DSS | 0 DSS | 0 DSS | 0 DSS |
| Cn1cc(CNCC2CCN(c3ncc(C(=O)NO)cn3)CC2)c2ccccc21 [Quisinostat] | 22 DSS | 20.4 DSS | 14.2 DSS | 16.1 DSS | 22 DSS | 13.3 DSS | 13.8 DSS | 1.9 DSS | 2.3 DSS |
| CNC(=O)c1cc(Oc2ccc(NC(=O)Nc3ccc(Cl)c(C(F)(F)F)c3)c(F)c2)ccn1 [Regorafenib] | 7.25 DSS | 6.89 DSS | 8.71 DSS | 2.25 DSS | 5.14 DSS | 10.1 DSS | 8.97 DSS | 5.5 DSS | 6.65 DSS |
| CN(C)C[C@@H]1CCn2cc(c3ccccc32)C2=C(C(=O)NC2=O)c2cn(c3ccccc23)CCO1 [Ruboxistaurin] | 8.41 DSS | 9.45 DSS | 4.62 DSS | 4.46 DSS | 7.79 DSS | 4.54 DSS | 4.64 DSS | 0.3 DSS | 3.95 DSS |
| N#CC[C@H](C1CCCC1)n1cc(-c2ncnc3[nH]ccc23)cn1 [Ruxolitinib] | 19.5 DSS | 30.5 DSS | 15.8 DSS | 27.5 DSS | 26.9 DSS | 22.2 DSS | 21.8 DSS | 13.2 DSS | 34.1 DSS |
| CC(C)(C)c1cnc(CSc2cnc(NC(=O)C3CCNCC3)s2)o1 [SNS-032] | 30.3 DSS | 20.5 DSS | 26.1 DSS | 21.1 DSS | 29.4 DSS | 10.5 DSS | 19.2 DSS | 18.9 DSS | 21.8 DSS |
| C[C@@H]1CC(=O)c2c(ccc3c2C(=O)c2cccc(O)c2C3=O)C1 [STA-21] | 9.69 DSS | 10 DSS | 5.75 DSS | 2.22 DSS | 11.5 DSS | 2.24 DSS | 4.92 DSS | 11.5 DSS | 10.3 DSS |
| CN1CCN(CCOc2cc(OC3CCOCC3)c3c(Nc4c(Cl)ccc5c4OCO5)ncnc3c2)CC1 [Saracatinib] | 2.03 DSS | 2.88 DSS | 2.46 DSS | 2.15 DSS | 1.25 DSS | 0.135 DSS | 3.28 DSS | 1.9 DSS | 0 DSS |
| CNC(=O)c1cc(Oc2ccc(NC(=O)Nc3ccc(Cl)c(C(F)(F)F)c3)cc2)ccn1 [Sorafenib] | 0.00415 DSS | 0.013 DSS | 0 DSS | 0 DSS | 0 DSS | 4.36 DSS | 0.365 DSS | 1.6 DSS | 2.1 DSS |
| O=[N+]([O-])c1ccc2c(c1)S(=O)(=O)C=C2 [Stattic] | 12.4 DSS | 13.3 DSS | 14.6 DSS | 14.3 DSS | 10.7 DSS | 14.1 DSS | 13.2 DSS | 7.37 DSS | 8.32 DSS |
| COc1cc(Nc2ncc(F)c(Nc3ccc4c(n3)NC(=O)C(C)(C)O4)n2)cc(OC)c1OC [Tamatinib] | 2.57 DSS | 8.19 DSS | 2.87 DSS | 10.5 DSS | 7.75 DSS | 6.98 DSS | 5.27 DSS | 0 DSS | 8.6 DSS |
| CO[C@H]1C[C@@H]2CC[C@@H](C)[C@@](O)(O2)C(=O)C(=O)N2CCCC[C@H]2C(=O)O[C@H]([C@H](C)C[C@@H]2CC[C@@H](OC(=O)C(C)(CO)CO)[C@H](OC)C2)CC(=O)[C@H](C)/C=C(\C)[C@@H](O)[C@@H](OC)C(=O)[C@H](C)C[C@H](C)/C=C/C=C/C=C/1C [Temsirolimus] | 18.6 DSS | 10.1 DSS | 14 DSS | 7.48 DSS | 20.6 DSS | 11.6 DSS | 4.18 DSS | 11.8 DSS | 8.55 DSS |
| C[C@@H]1CCN(C(=O)CC#N)C[C@@H]1N(C)c1ncnc2[nH]ccc12 [Tofacitinib] | 12.3 DSS | 23.4 DSS | 8.43 DSS | 17.4 DSS | 19.8 DSS | 15.5 DSS | 13.2 DSS | 9.05 DSS | 26 DSS |
| CN[C@@H]1C[C@H]2O[C@@](C)([C@@H]1OC)n1c3ccccc3c3c4c(c5c6ccccc6n2c5c31)C(=O)N[C@H]4O [UCN-01] | 28.7 DSS | 30.7 DSS | 20.5 DSS | 29.8 DSS | 26.9 DSS | 30.1 DSS | 27.3 DSS | 20.3 DSS | 22.9 DSS |
| CC1(C)CCC(CN2CCN(c3ccc(C(=O)NS(=O)(=O)c4ccc(NCC5CCOCC5)c([N+](=O)[O-])c4)c(Oc4cnc5[nH]ccc5c4)c3)CC2)=C(c2ccc(Cl)cc2)C1 [Venetoclax] | 10.3 DSS | 9.65 DSS | 11.6 DSS | 29.2 DSS | 11.9 DSS | 24.9 DSS | 3.59 DSS | 1.5 DSS | 0.9 DSS |
